Data published in US11591331B2, “PARP1 inhibitors and uses thereof” (Xinthera, Inc., priority 2021, dated 2023).

Experiments:
[1] = tested on: DLD-1 BRCA2(−/−); assay: Cell growth inhibition assay (CellTiter-Glo cell viability, 7 days); format: cell-based; details: Homo sapiens, 168 h, DLD-1 BRCA2(-/-) cells
[2] = tested on: MDA-MB-436 (mutated BRCA1) cell lines; assay: as above; format: cell-based; details: Homo sapiens, 168 h, MDA-MB-436 cells

CCc1cc2ncc(CN3CC(N(C)c4ccc(C(=O)NC)nc4)C3)cc2[nH]c1=O [Example 26, 5-({1-[(7-ethyl-6-oxo-5H-1,5-naphthyridin-3-yl)methyl]azetidin-3-yl}(methyl)amino)-N-methylpyridine-2-carboxamide]
EC50 [1]: 33 nM
EC50 [2]: 39 nM

CCc1cc2ncc(CN3CCN(c4cnc(C(=O)NC5CC5)c(F)c4)CC3)cc2[nH]c1=O [Example 105]
EC50 [1]: 3.2 nM
EC50 [2]: 1.8 nM

CCc1cc2ncc(CN3CCN(c4ccc(C(=O)N[C@H]5C[C@](C)(O)C5)nc4)CC3)cc2[nH]c1=O [Example 55]
EC50 [1]: 11 nM
EC50 [2]: 1.4 nM

Cc1c(Cl)c(=O)[nH]c2cc(CN3CCN(c4ccc(C(=O)NC5CC5)nc4)CC3)cnc12 [Example 154]
EC50 [1]: 3 nM
EC50 [2]: 1.6 nM

CCc1nc2cnc(CN3CCN(c4ccc(C(=O)NC)nc4)CC3)cc2[nH]c1=O [Example 87]
EC50 [1]: 6.5 nM
EC50 [2]: 5.3 nM

C#Cc1ccc(N2CCN(Cc3cnc4cc(CC)c(=O)[nH]c4c3)CC2)nc1 [Example 83]
EC50 [1]: 1.5 nM
EC50 [2]: 1.4 nM

CNC(=O)c1ccc(N2CCN(Cc3ccc4c5c(c(=O)[nH]c4c3)CCO5)CC2)cn1 [Example 18, N-methyl-5-[4-({4-oxo-2H,3H,5H-furo[3,2-c]quinolin-7-yl}methyl)piperazin-1-yl]pyridine-2-carboxamide]
EC50 [1]: 5.1 nM
EC50 [2]: 2.3 nM

CCc1cc2ncc(CN3CCN(c4cnc(C(=O)NC)c(F)c4)[C@H]4C[C@H]43)cc2[nH]c1=O (single isomer, unassigned) [Example 69]
EC50 [1]: 7.3 nM
EC50 [2]: 4.4 nM

CNC(=O)c1ccc(C2=CCN(Cc3cnc4cc(Cl)c(=O)[nH]c4c3)CC2)cn1 [Example 160]
EC50 [1]: 2.6 nM
EC50 [2]: 2.1 nM

CCc1cc2ncc(CN3CCN(c4ccc(C(=O)NC)nc4C#N)[C@H]4C[C@H]43)cc2[nH]c1=O (single isomer, unassigned) [Example 76]
EC50 [1]: 1.6 nM
EC50 [2]: 0.98 nM

CCc1cc2ncc(CN3CCN(c4ccc(C(=O)NC[C@H]5CCOC5)nc4)CC3)cc2[nH]c1=O [Example 41]
EC50 [1]: 2.4 nM
EC50 [2]: 1.9 nM

CNC(=O)c1ccc(N2CCN(Cc3cnc4cc(C)c(=O)[nH]c4c3)[C@H]3C[C@H]32)cn1 (single isomer, unassigned) [Example 99]
EC50 [1]: 16 nM
EC50 [2]: 11 nM

CCc1cc2ncc(CN3CCN(c4ccc(C(=O)NC5CCOCC5)nc4)CC3)cc2[nH]c1=O [Example 44]
EC50 [1]: 7.4 nM
EC50 [2]: 5.3 nM

CNC(=O)c1ccc(N2CCN(Cc3cnc4c(Cl)c(Br)c(=O)[nH]c4c3)CC2)cn1 [Example 159]
EC50 [1]: 1.7 nM
EC50 [2]: 0.72 nM

[2H]C([2H])([2H])NC(=O)c1ccc(N2CCN(Cc3cnc4cc(CC)c(=O)[nH]c4c3)[C@@H]3C[C@@H]32)cn1 (single isomer, unassigned) [Example 96]
EC50 [1]: 2.9 nM
EC50 [2]: 1.7 nM

CCc1cc2ncc(CN3CCN(c4ccc(C(=O)NC5CC5)nc4)[C@@H]4C[C@@H]43)cc2[nH]c1=O (single isomer, unassigned) [Example 111]
EC50 [1]: 4.6 nM
EC50 [2]: 1.8 nM

CNC(=O)c1ccc(N2CCN(Cc3cnc4c(C)c(Cl)c(=O)[nH]c4c3)CC2)c(F)n1 [Example 156]
EC50 [1]: 0.68 nM
EC50 [2]: 0.39 nM

CCc1cc2ncc(CN3CCN(c4ccc(C(=O)N[C@H]5C[C@@](C)(O)C5)nc4)CC3)cc2[nH]c1=O [Example 45]
EC50 [1]: 16 nM
EC50 [2]: 4.3 nM

C#Cc1cc2ncc(CN3CCN(c4ccc(C(=O)NC)nc4)CC3)cc2[nH]c1=O [Example 135]
EC50 [1]: 15 nM
EC50 [2]: 24 nM

CCc1cc2ncc(CN3CCN(c4ccc(-c5ncc[nH]5)nc4)CC3)cc2[nH]c1=O [Example 19, 3-ethyl-7-({4-[6-(1H-imidazol-2-yl)pyridin-3-yl]piperazin-1-yl}methyl)-1H-1,5-naphthyridin-2-one]
EC50 [1]: 3.7 nM
EC50 [2]: 1.8 nM

CCc1cc2ncc(CN3CCN(c4ccc(C(=O)NC)c(=O)n4C)[C@@H]4C[C@@H]43)cc2[nH]c1=O (single isomer, unassigned) [Example 114]
EC50 [1]: 11 nM
EC50 [2]: 5.1 nM

N#Cc1ncccc1N1CCN(Cc2cnc3cc(C4CC4)c(=O)[nH]c3c2)CC1 [Example 129]
EC50 [1]: 15 nM
EC50 [2]: 7 nM

Cc1cc2ncc([C@H](C)N3CCN(c4ccc(C(=O)NC5CC5)nc4)CC3)cc2[nH]c1=O (single isomer, unassigned) [Example 126]
EC50 [1]: 14 nM
EC50 [2]: 4.3 nM

CCc1cc2ncc(CN3CCN(c4ccncc4C#N)CC3)cc2[nH]c1=O [Example 118]
EC50 [1]: 1.3 nM
EC50 [2]: 0.74 nM

[2H]C([2H])([2H])NC(=O)c1ccc(N2CCN(Cc3cnc4cc(CC)c(=O)[nH]c4c3)[C@H]3C[C@H]32)cn1 (racemic) [Example 90]
EC50 [1]: 6.4 nM
EC50 [2]: 4.3 nM

CCc1cc2ncc(CN3CCN(c4ccc(C(=O)N[C@H]5CCOC5)nc4)CC3)cc2[nH]c1=O [Example 47]
EC50 [1]: 7.7 nM
EC50 [2]: 3.3 nM

CCc1cc2ncc(CN3CCN(c4ccc(NC(=O)OC5COC5)nc4)CC3)cc2[nH]c1=O [Example 102]
EC50 [1]: 13 nM
EC50 [2]: 18 nM

CCc1cc2ncc([C@@H](C)N3CCN(c4ccc(C(=O)NC)nc4)CC3)cc2[nH]c1=O (single isomer, unassigned) [Example 20]
EC50 [1]: 4.1 nM

[2H]C([2H])([2H])NC(=O)c1ccc(N2CCN(C([2H])([2H])c3cnc4cc(C5CC5)c(=O)[nH]c4c3)CC2)cn1 [Example 116]
EC50 [1]: 2 nM
EC50 [2]: 1.2 nM

O=C(NC1CC1)c1ccc(N2CCN(Cc3cnc4cc(Cl)c(=O)[nH]c4c3)CC2)cn1 [Example 147]
EC50 [1]: 2.9 nM
EC50 [2]: 1.3 nM

CNC(=O)c1ccc(C2=CCN(Cc3cnc4cc(C5CC5)c(=O)[nH]c4c3)CC2)cn1 [Example 64]
EC50 [1]: 0.92 nM
EC50 [2]: 0.64 nM

CCc1cc2ncc(CN3CCN(c4ccc(-c5cnc[nH]5)c(F)c4)CC3)cc2[nH]c1=O [Example 70]
EC50 [1]: 5.5 nM
EC50 [2]: 2.6 nM

CNC(=O)c1ccc(N2CCN(Cc3cnc4cc(C)c(=O)[nH]c4c3)CC2)c(C#N)c1 [Example 38]
EC50 [1]: 7.6 nM
EC50 [2]: 5.3 nM

CCNC(=O)c1ccc(N2CCN(Cc3cnc4cc(C5CC5)c(=O)[nH]c4c3)CC2)cn1 [Example 137]
EC50 [1]: 2.1 nM
EC50 [2]: 1.3 nM

CCc1cc2ncc([C@H](C)N3CCN(c4ccc(C(=O)NC)nc4)CC3)cc2[nH]c1=O (single isomer, unassigned) [Example 21]
EC50 [1]: 1.7 nM
EC50 [2]: 0.9 nM

[2H]C([2H])(c1cnc2cc(C3CC3)c(=O)[nH]c2c1)N1CCN(c2ccc(C(=O)NC)nc2)CC1 [Example 115]
EC50 [1]: 1.9 nM
EC50 [2]: 1.3 nM

CNC(=O)c1ccc(N2CCN(Cc3cnc4cc(C)c(=O)[nH]c4c3)[C@H]3C[C@H]32)c(C#N)n1 (single isomer, unassigned) [Example 98]
EC50 [1]: 2 nM
EC50 [2]: 1.2 nM

CCc1cc2ccc(CN3CCN(c4ccc(C(=O)NC)nc4F)CC3)nc2[nH]c1=O [Example 150]
EC50 [1]: 18 nM
EC50 [2]: 9 nM

CCc1cc2ncc(CN3CCN(c4ccccn4)CC3)cc2[nH]c1=O [Example 82, 3-ethyl-7-{[4-(pyridin-2-yl)piperazin-1-yl]methyl}-1H-1,5-naphthyridin-2-one]
EC50 [1]: 10 nM
EC50 [2]: 7.8 nM

CCc1cc2ncc(CN3CCN(c4ccc(C(=O)NC5COC5)nc4)[C@@H]4C[C@@H]43)cc2[nH]c1=O (single isomer, unassigned) [Example 88]
EC50 [1]: 4.2 nM
EC50 [2]: 3.8 nM

Cc1cc2ncc(CN3CCN(c4ccc(C(=O)NC5CC5)nc4)[C@@H]4C[C@@H]43)cc2[nH]c1=O (single isomer, unassigned) [Example 109]
EC50 [1]: 37 nM
EC50 [2]: 14 nM

CNC(=O)c1ccc(N2CCN(Cc3cnc4cc(C)c(=O)[nH]c4c3)C[C@H]2C)c(C#N)n1 [Example 66]
EC50 [1]: 4.1 nM
EC50 [2]: 1.7 nM

O=C(NC1CC1)c1ccc(N2CCN(Cc3cnc4cc(C5CC5)c(=O)[nH]c4c3)[C@H]3C[C@H]32)cn1 (single isomer, unassigned) [Example 112]
EC50 [1]: 7.8 nM
EC50 [2]: 3.3 nM

CNC(=O)c1ccc(N2CCN(Cc3cnc4c(C(F)F)c(C)c(=O)[nH]c4c3)CC2)cn1 [Example 151]
EC50 [1]: 16 nM
EC50 [2]: 28 nM

CNC(=O)c1ccc(N2CCN(Cc3cnc4c(C)c(C(F)F)c(=O)[nH]c4c3)CC2)cn1 [Example 133]
EC50 [1]: 1 nM
EC50 [2]: 0.87 nM

Cc1cc2ncc(CN3CCN(c4cnc(C(=O)NC5CC5)c(F)c4)CC3)cc2[nH]c1=O [Example 108]
EC50 [1]: 31 nM
EC50 [2]: 14 nM

CNC(=O)c1ccc(N2CCN(Cc3cnc4cc(C5CC5)c(=O)[nH]c4c3)C[C@H]2C)cn1 [Example 74]
EC50 [1]: 7.8 nM
EC50 [2]: 3.9 nM

CCc1cc2ncc(CN3CCN(c4ccc(C(=O)N[C@H]5CCCOC5)nc4)CC3)cc2[nH]c1=O (single isomer, unassigned) [Example 53]
EC50 [1]: 2.4 nM
EC50 [2]: 0.92 nM

CNC(=O)c1ccc(N2CCN(Cc3cnc4cc(Cl)c(=O)[nH]c4c3)CC2)cn1 [Example 138, 5-{4-[(7-chloro-6-oxo-5H-1,5-naphthyridin-3-yl)methyl]piperazin-1-yl}-N-methylpyridine-2-carboxamide]
EC50 [1]: 2.7 nM
EC50 [2]: 2.1 nM

CCc1cc2c(OC)nc(CN3CCN(c4ccc(C(=O)NC)nc4)CC3)cc2[nH]c1=O [Example 144]
EC50 [1]: 4.1 nM
EC50 [2]: 2 nM

CCc1cc2ncc(CN3CCN(c4ccc(C(=O)N[C@@H]5CCCOC5)nc4)CC3)cc2[nH]c1=O (single isomer, unassigned) [Example 54]
EC50 [1]: 2.8 nM
EC50 [2]: 1 nM

CNC(=O)c1ccc(N2CCN(Cc3cnc4c(c3)[nH]c(=O)c3ccoc34)[C@@H]3C[C@@H]32)cn1 (single isomer, unassigned) [Example 85]
EC50 [1]: 14 nM
EC50 [2]: 13 nM

CNC(=O)c1ncc(N2CCN(Cc3ccc4c5c(c(=O)[nH]c4c3)CCO5)CC2)cc1F [Example 71]
EC50 [1]: 13 nM
EC50 [2]: 5.9 nM

CNC(=O)c1ccc(N2CCN([C@@H](C)c3cnc4cc(C)c(=O)[nH]c4c3)CC2)cn1 (single isomer, unassigned) [Example 124]
EC50 [1]: 7.5 nM
EC50 [2]: 17 nM
